Source: article PMC12216625, “Identification of nanomolar adenosine A2A receptor ligands using reinforcement learning and structure-based drug design” (Nature Communications, 2025)

Columns and labels:
[1] = biological target: T1, A2A receptor (human, wild-type) (Homo sapiens, UniProt P29274); experiment: cAMP accumulation HTRF, agonist mode (compound alone); type: cell-based; details: read-out: A2A / pEC50 (± SD) (converted)
T1 construct: gene ADORA2A; wild-type human A2A; BacMam-transfected cells (CHO-K1 for the cAMP assay)
From the text: cAMP accumulation HTRF, agonist mode (compound alone) on A2A receptor (human, wild-type)

[2] = biological target: T1, A2A receptor (human, wild-type); experiment: [3H]-ZM241385 radioligand competition, filtration; type: binding; details: read-out: A2A / pKi (± SD) (converted)
From the text: [3H]-ZM241385 radioligand competition, filtration on A2A receptor (human, wild-type)

[3] = biological target: T1, A2A receptor (human, wild-type); experiment: cAMP accumulation HTRF, antagonist mode; type: cell-based; details: read-out: A2A / pIC50 (± SD) (converted)
From the text: cAMP accumulation HTRF, antagonist mode on A2A receptor (human, wild-type)

T1 sequence (P29274 whole entry): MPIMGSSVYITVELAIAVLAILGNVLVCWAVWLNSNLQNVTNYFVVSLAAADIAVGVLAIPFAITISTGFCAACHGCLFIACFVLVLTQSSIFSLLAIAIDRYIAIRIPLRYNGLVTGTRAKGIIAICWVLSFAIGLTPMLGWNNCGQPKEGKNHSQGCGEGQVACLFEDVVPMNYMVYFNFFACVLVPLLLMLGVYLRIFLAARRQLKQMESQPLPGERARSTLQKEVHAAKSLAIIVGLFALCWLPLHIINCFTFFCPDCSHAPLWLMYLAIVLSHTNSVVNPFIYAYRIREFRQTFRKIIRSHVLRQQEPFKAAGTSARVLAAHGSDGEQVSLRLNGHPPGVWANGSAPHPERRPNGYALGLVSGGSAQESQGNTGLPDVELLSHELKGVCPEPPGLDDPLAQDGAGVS

SMILES	EC50 [1] [nM]	Ki [2] [nM]	IC50 [3] [nM]
Nc1nc(-c2ccc(O)cc2)c2cc(F)ccc2n1 [compound 5, Compound 5]	50.1	2000	
Nc1cc(NCc2ccccc2F)nc(-c2ccccn2)n1 [compound 3, Compound 3]		1260	
Cc1ccc(-c2nc(N)nn2-c2ccccc2)cc1 [compound 1, Compound 1]		15800	

Continued, values first:

EC50 [1] [nM]	Ki [2] [nM]	IC50 [3] [nM]	SMILES
316	31.6	20	Nc1nc(-c2ccco2)nc2c1ccn2-c1ccncc1 [compound 9, Compound 9]
	1260		Nc1nc2cc(-c3ccoc3)cc(-c3ccco3)n2n1 [compound 6, Compound 6]
20	50.1	25.1	Nc1nc(-c2cccc(-n3ccnc3)n2)nc(-c2ccco2)n1 [compound 7, Compound 7]
